Measured values reported in PubChem BioAssay (NCI).
Several values for one entry are separate records, joined by “and”; a condition that tells them apart may be missing. Equal values may be shown once.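 Results reflect a 48-hour exposure of cells in 96-well plates to compound at five concentrations. GI50 = concentration required for 50% inhibition of growth. The concentration for full growth arrest is given as TGI.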

Key:
Experiment in all cases: growth of human tumour cells (NCI), 48 h
SNB-78 CNS = test system: SNB-78 CNS
SF-539 CNS = test system: SF-539 CNS
TK-10 renal = test system: TK-10 renal
SNB-75 CNS = test system: SNB-75 CNS
SK-MEL-2 melanoma = test system: SK-MEL-2 melanoma
KM12 colon = test system: KM12 colon
LOX IMVI melanoma = test system: LOX IMVI melanoma
DMS 114 small cell lung = test system: DMS 114 small cell lung
OVCAR-4 ovarian = test system: OVCAR-4 ovarian
T-47D breast = test system: T-47D breast

## CCCCCCCC(=O)[O-].CCCCCCCC(=O)[O-].N.N.N.N.[Co+3].[O-][Cl+3]([O-])([O-])[O-]
SNB-78 CNS
  GI50: > 100 µM
  TGI: > 100 µM
SF-539 CNS
  GI50: > 100 µM
  TGI: > 100 µM
TK-10 renal
  GI50: 57.1 µM
  TGI: > 100 µM
SNB-75 CNS
  GI50: > 100 µM
  TGI: > 100 µM
SK-MEL-2 melanoma
  GI50: > 100 µM
  TGI: > 100 µM
KM12 colon
  GI50: > 100 µM
  TGI: > 100 µM

## O=C(c1ccccc1)c1nnn(Cc2ccccc2Cn2nnc(C(=O)c3ccccc3)c2C(=O)c2ccccc2)c1C(=O)c1ccccc1
SNB-78 CNS
  TGI: > 100 µM
SF-539 CNS
  TGI: > 100 µM
TK-10 renal
  TGI: > 100 µM
SNB-75 CNS
  TGI: > 100 µM
LOX IMVI melanoma
  TGI: > 100 µM
SK-MEL-2 melanoma
  TGI: > 100 µM
DMS 114 small cell lung
  TGI: > 100 µM
OVCAR-4 ovarian
  TGI: > 100 µM
KM12 colon
  TGI: > 100 µM

## O=c1c2ccccc2oc2ccccc12 (tested in a mixture with another compound)
SF-539 CNS
  TGI: > 100 µM
SNB-75 CNS
  TGI: 7.58 µM
LOX IMVI melanoma
  TGI: 17 µM
DMS 114 small cell lung
  TGI: 5.08 µM
OVCAR-4 ovarian
  TGI: > 100 µM
KM12 colon
  TGI: > 100 µM

## CC(C)N(C(=O)C12C3C4C5(C(=O)O)C(C1C35I)C42C(=O)O)C(C)C (centres undefined)
SNB-78 CNS
  TGI: > 100 µM
SF-539 CNS
  TGI: > 100 µM
TK-10 renal
  TGI: > 100 µM
SNB-75 CNS
  TGI: > 100 µM
DMS 114 small cell lung
  TGI: > 100 µM
OVCAR-4 ovarian
  TGI: > 100 µM
KM12 colon
  TGI: > 100 µM

## Cc1ccccc1-n1c(=S)[nH]c2c(sc(=O)n2-c2ccccc2C)c1=O
SNB-78 CNS
  TGI: > 100 µM
SF-539 CNS
  TGI: > 100 µM
SNB-75 CNS
  TGI: > 100 µM
SK-MEL-2 melanoma
  TGI: > 100 µM
DMS 114 small cell lung
  TGI: > 100 µM
OVCAR-4 ovarian
  TGI: > 100 µM
KM12 colon
  TGI: > 100 µM

## O=c1cc[nH]cc1-c1c[nH]ccc1=O
SNB-78 CNS
  TGI: > 100 µM
SF-539 CNS
  TGI: > 100 µM
TK-10 renal
  TGI: > 100 µM
SNB-75 CNS
  TGI: > 100 µM
LOX IMVI melanoma
  TGI: > 100 µM
DMS 114 small cell lung
  TGI: > 100 µM
KM12 colon
  TGI: > 100 µM

## CCC(C)(O)c1cn(-c2ccc(Cl)cc2)nn1 (centres undefined)
SNB-78 CNS
  TGI: > 100 µM
SF-539 CNS
  TGI: > 100 µM
TK-10 renal
  TGI: > 100 µM
SNB-75 CNS
  TGI: > 100 µM
LOX IMVI melanoma
  TGI: > 100 µM
SK-MEL-2 melanoma
  TGI: > 100 µM
OVCAR-4 ovarian
  TGI: > 100 µM
KM12 colon
  TGI: > 100 µM

## COC(=O)C(=O)C(C(=O)C(=O)Nc1ccccc1[N+](=O)[O-])c1nc2ccc([N+](=O)[O-])cc2[nH]c1=O (centres undefined)
SNB-78 CNS
  TGI: > 100 µM
SNB-75 CNS
  TGI: > 100 µM
LOX IMVI melanoma
  TGI: > 100 µM
SK-MEL-2 melanoma
  TGI: > 100 µM
DMS 114 small cell lung
  TGI: > 100 µM
OVCAR-4 ovarian
  TGI: > 100 µM
KM12 colon
  TGI: > 100 µM

## CN1CCC(c2c(O)cc(O)c3c(=O)cc(-c4ccccc4Cl)oc23)C(O)C1 (centres undefined)
SF-539 CNS
  GI50: 0.288 µM
  TGI: > 100 µM
TK-10 renal
  TGI: > 100 µM
SNB-75 CNS
  GI50: 0.0482 µM
  TGI: 0.18 µM
DMS 114 small cell lung
  TGI: 0.393 µM
OVCAR-4 ovarian
  TGI: 0.473 µM
KM12 colon
  TGI: > 100 µM

## Brc1cc(C2OCCCO2)ccc1OCc1ccccc1
SNB-78 CNS
  TGI: > 100 µM
SF-539 CNS
  TGI: > 100 µM
TK-10 renal
  TGI: > 100 µM
SNB-75 CNS
  TGI: > 100 µM
LOX IMVI melanoma
  TGI: 63.5 µM
SK-MEL-2 melanoma
  TGI: > 100 µM
DMS 114 small cell lung
  TGI: > 100 µM
OVCAR-4 ovarian
  TGI: > 100 µM
KM12 colon
  TGI: > 100 µM

## CN1CCN=C1c1nnn(-c2ccc([N+](=O)[O-])cc2)c1-c1ccccc1
SNB-78 CNS
  TGI: > 100 µM
SF-539 CNS
  TGI: > 100 µM
TK-10 renal
  TGI: > 100 µM
SNB-75 CNS
  TGI: > 100 µM
LOX IMVI melanoma
  TGI: > 100 µM
SK-MEL-2 melanoma
  TGI: > 100 µM
DMS 114 small cell lung
  TGI: > 100 µM
OVCAR-4 ovarian
  TGI: > 100 µM
KM12 colon
  TGI: > 100 µM

## CS(=O)(=O)c1ccc(COP(N)(=O)N(CCCl)CCCl)cc1 (centres undefined)
SNB-78 CNS
  TGI: > 100 µM
SF-539 CNS
  TGI: > 100 µM
TK-10 renal
  TGI: > 100 µM
SNB-75 CNS
  TGI: > 100 µM
LOX IMVI melanoma
  TGI: > 100 µM
SK-MEL-2 melanoma
  TGI: > 100 µM
DMS 114 small cell lung
  TGI: > 100 µM
OVCAR-4 ovarian
  TGI: > 100 µM
KM12 colon
  TGI: > 100 µM

## CCOC(=O)[C@@]12C(C)=CC(=O)O[C@]1(C)C1C(=O)NC(=O)C12 (some centres undefined)
SNB-78 CNS
  TGI: > 100 µM
SF-539 CNS
  TGI: > 100 µM
TK-10 renal
  TGI: > 100 µM
SNB-75 CNS
  TGI: > 100 µM
LOX IMVI melanoma
  TGI: > 100 µM
SK-MEL-2 melanoma
  TGI: > 100 µM
DMS 114 small cell lung
  TGI: > 100 µM
OVCAR-4 ovarian
  TGI: > 100 µM
KM12 colon
  TGI: > 100 µM

## Cc1ccc2oc(=O)c3c(O)c4cccc(OC5OC(C)C6O[C@@H](c7ccccc7)OC6C5OC5OC(C)C(O)C(O)C5O)c4c4oc(=O)c1c2c34 (some centres undefined)
T-47D breast
  TGI: 1.23 µM
SNB-78 CNS
  TGI: 5.23 µM
SF-539 CNS
  TGI: 1.34 µM and 1.39 µM
TK-10 renal
  GI50: 0.461 µM
  TGI: 3.81 µM and 8.95 µM
SNB-75 CNS
  TGI: 1.54 µM
LOX IMVI melanoma
  GI50: 0.0293 µM and 0.0483 µM
  TGI: 0.538 µM and 1.51 µM
SK-MEL-2 melanoma
  TGI: 1.68 µM
DMS 114 small cell lung
  TGI: 3.16 µM
OVCAR-4 ovarian
  TGI: 3.53 µM
KM12 colon
  GI50: 0.0486 µM
  TGI: 1.43 µM and 1.92 µM

## O=[N+]([O-])c1cc(/C=N\NS(=O)(=O)c2ccc(Cl)cc2)c(O)c([N+](=O)[O-])c1
SNB-78 CNS
  TGI: > 100 µM
SF-539 CNS
  TGI: 44.2 µM
TK-10 renal
  TGI: > 100 µM
SNB-75 CNS
  TGI: 73.5 µM
LOX IMVI melanoma
  TGI: > 100 µM
SK-MEL-2 melanoma
  TGI: > 100 µM
DMS 114 small cell lung
  TGI: > 100 µM
OVCAR-4 ovarian
  TGI: > 100 µM
KM12 colon
  TGI: 67.1 µM

## Cc1cc(Cl)cc2c1NC(=O)C2(O)CC(=O)c1ccc(Br)cc1 (centres undefined)
SF-539 CNS
  TGI: > 100 µM
TK-10 renal
  TGI: > 100 µM
SNB-75 CNS
  TGI: > 100 µM
LOX IMVI melanoma
  TGI: > 100 µM
SK-MEL-2 melanoma
  TGI: > 100 µM
DMS 114 small cell lung
  TGI: > 100 µM
OVCAR-4 ovarian
  TGI: > 54.6 µM
KM12 colon
  TGI: > 100 µM

## CCCC(O)c1cn(-c2cccc(S(=O)(=O)O)c2)nn1 (centres undefined)
SNB-78 CNS
  TGI: > 100 µM
SF-539 CNS
  TGI: > 100 µM
TK-10 renal
  TGI: > 100 µM
SNB-75 CNS
  TGI: > 100 µM
LOX IMVI melanoma
  TGI: > 100 µM
SK-MEL-2 melanoma
  TGI: > 100 µM
DMS 114 small cell lung
  TGI: > 100 µM
OVCAR-4 ovarian
  TGI: > 100 µM
KM12 colon
  TGI: > 100 µM

## CC(/C=C/C(=O)c1sc(C(N)=S)nc1C)=C\c1ccccc1
SNB-78 CNS
  TGI: > 100 µM
SF-539 CNS
  TGI: > 100 µM
TK-10 renal
  TGI: > 100 µM
SNB-75 CNS
  TGI: > 100 µM
LOX IMVI melanoma
  TGI: 40.2 µM
SK-MEL-2 melanoma
  TGI: > 100 µM
DMS 114 small cell lung
  TGI: 35 µM
OVCAR-4 ovarian
  TGI: > 100 µM
KM12 colon
  TGI: > 100 µM

## COc1ccc(NC(=O)CC(=O)N/N=C(\C)c2cc3ccccc3oc2=O)cc1
SF-539 CNS
  TGI: > 100 µM
TK-10 renal
  TGI: > 100 µM
SNB-75 CNS
  TGI: > 100 µM
LOX IMVI melanoma
  TGI: > 100 µM
DMS 114 small cell lung
  TGI: > 100 µM
KM12 colon
  TGI: > 100 µM

## CCCCNS(=O)(=O)c1ccc(-c2ccc3c(c2)-c2ccc(S(=O)(=O)NCCCC)cc2S3(=O)=O)cc1
SNB-78 CNS
  TGI: 33.4 µM
SF-539 CNS
  TGI: 27.4 µM
TK-10 renal
  TGI: 83.2 µM
LOX IMVI melanoma
  TGI: 38 µM
SK-MEL-2 melanoma
  TGI: 87.9 µM
DMS 114 small cell lung
  TGI: > 100 µM
OVCAR-4 ovarian
  TGI: 15.4 µM
KM12 colon
  TGI: > 100 µM

## CCCCCCC(=O)C/C(CCC(=O)N(Cc1ccccc1)Cc1ccccc1)=N\NC(N)=O
SNB-78 CNS
  TGI: > 100 µM
SF-539 CNS
  TGI: > 100 µM
TK-10 renal
  TGI: > 100 µM
SNB-75 CNS
  TGI: > 100 µM
LOX IMVI melanoma
  TGI: > 100 µM
SK-MEL-2 melanoma
  TGI: > 100 µM
DMS 114 small cell lung
  TGI: > 100 µM
OVCAR-4 ovarian
  TGI: > 100 µM
KM12 colon
  TGI: > 100 µM

## COc1ccc(C2NN=C3c4ccccc4CCC32)cc1 (centres undefined)
T-47D breast
  GI50: 6.12 µM
  TGI: 47.3 µM
SF-539 CNS
  GI50: 6.73 µM
  TGI: 28.8 µM
TK-10 renal
  GI50: 16.9 µM
  TGI: 71.8 µM
SNB-75 CNS
  GI50: 0.284 µM
  TGI: 5.58 µM
LOX IMVI melanoma
  GI50: 8.25 µM
  TGI: 33.5 µM
SK-MEL-2 melanoma
  GI50: 28.5 µM
  TGI: > 100 µM
OVCAR-4 ovarian
  GI50: 3.31 µM
  TGI: 24.6 µM
KM12 colon
  GI50: 3.99 µM
  TGI: > 100 µM
